Data published in patent US10519140B2, “Indolin-2-one derivatives” (Hoffmann-La Roche Inc., priority 2015, dated 2019).

What follows are molecules tested on L-687,414-induced hyperlocomotion (assay: L-687,414-induced hyperlocomotion). Conditions: Mus musculus; mice; dose 30 mg/kg ip, 15 min before 50 mg/kg s.c. L-687,414.
Assay type: in vivo
Excerpt: The authors described that hyperlocomotion induced by L-687,414 was inhibited by a series of known antipsychotic drugs. […] These findings predict antipsychotic activity for the present compounds, making them useful for the treatment of positive (psychosis) and negative symptoms of schizophrenia, substance abuse, alcohol and drug addiction, obsessive-compulsive disorders, cognitive impairment, bipolar disorders, mood disorders, major depression, resistant depression, anxiety disorders, Alzheimer's disease, autism, Parkinson's disease, chronic pain, borderline personality disorder, sleep disturbances, chronic fatigue syndrome, stiffness, antiinflammatory effects in arthritis and balance problems, and treatment of epilepsy and neurodevelopmental disorders with co-morbid epilepsy.
The described compounds of formula I reduce L-687,414-induced hyperlocomotion. This was assessed by using a computerized Digiscan 16 Animal Activity Monitoring System (Omnitech Electronics, Columbus, Ohio) to quantify locomotor activity. Animals were kept under a 12 h light/dark cycle and experiments were performed during the light period. Each activity monitoring chamber consisted of a Plexiglas box (41×41×28 cm; W×L×H) with sawdust bedding on the floor surrounded by invisible horizontal and vertical infrared sensor beams. The test boxes were divided by a Plexiglas cross providing each mouse with 20×20 cm of moving space. Cages were connected to a Digiscan Analyzer linked to a computer that constantly collected the beam status information. Records of photocell beam interruptions for individual animals were taken every 5 min over the duration of the experimental session and the sum of the first 6 periods was used as the final parameter. At least 8 mice were used in each treatment group. Compounds were administered i.p. 15 min before a s.c. injection of 50 mg/kg of L-687,414. Mice were then transferred from their home cage to the recording chambers for a 15-min habituation phase allowing free exploration of the new environment. Horizontal activity was then recorded for a 30-min time period. The % inhibition of L-687,414-induced hyperlocomotion was calculated according to the equation: ((Veh+L-687,414 horizontal activity−drug+L-687,414 horizontal activity)/Veh+L−687,414 horizontal activity)×100
ID50 values, defined as doses of each compound producing 50% inhibition of L-687,414-induced hyperlocomotion, were calculated by linear regression analysis of a dose-response data using an Excel-based computer-fitting program.
As data was not presupposed to be normally distributed, groups treated with test compounds were statistically compared with the control (vehicle-treated) group using one-tailed Mann Whitney U tests. In statistics, the Mann-Whitney Utest (also called the Mann-Whitney-Wilcoxon (MWW) or Wilcoxon rank-sum test) is a non-parametric statistical hypothesis test for assessing whether one of two samples of independent observations tends to have larger values than the other. It is one of the most well-known non-parametric significance tests. […] P values given in table 1 are one-tailed since only decreases in locomotion were expected and tested for (Mann, H. B., Whitney, D. R. (1947), “On a Test of Whether one of Two Random Variables is Stochastically Larger than the Other”, Annals of Mathematical Statistics, 18 (1), 50-60).

Question: How did the inhibition in vivo at 30 mg/kg turn out when `Cc1ncc(-c2ccc3c(c2)N(c2ccc4c(n2)N(C)C(=O)C4(C)C)C(=O)C3(C)C)cn1` [Example 39, 6-(3,3-Dimethyl-6-(2-methylpyrimidin-5-yl)-2-oxoindolin-1-yl)-1,3,3-trimethyl-1H-pyrrolo[2,3-b]pyridin-2(3H)-one] was run?
Answer: Its inhibition in vivo at 30 mg/kg is 99.5%.

Question: For `Cc1ncc(-c2ccc3c(c2)N(c2cnc(-n4ccnc4C)cn2)C(=O)C3(C)C)cn1` [Example 50, 3,3-Dimethyl-1-(5-(2-methyl-1H-imidazol-1-yl)pyrazin-2-yl)-6-(2-methylpyrimidin-5-yl)indolin-2-one], which inhibition in vivo at 30 mg/kg is on record?
Answer: The inhibition in vivo at 30 mg/kg was 96.3%.

Question: `Cc1ncc(-c2ccc3c(c2)N(c2cnc(C)c(N4CCOC4=O)n2)C(=O)C3(C)C)cn1` [Example 20, 3-(6-(3,3-Dimethyl-6-(2-methylpyrimidin-5-yl)-2-oxoindolin-1-yl)-3-methylpyrazin-2-yl)oxazolidin-2-one] was tested. Which inhibition in vivo at 30 mg/kg did it give?
Answer: Its inhibition in vivo at 30 mg/kg is 89.7%.

Question: How did the inhibition in vivo at 30 mg/kg turn out when `Cc1ncc(-c2ccc3c(c2)N(c2cncc(N4CCOC4=O)n2)C(=O)C3(C)C)cn1` [Example 15, 3-(6-(3,3-Dimethyl-6-(2-methylpyrimidin-5-yl)-2-oxoindolin-1-yl)pyrazin-2-yl)oxazolidin-2-one] was run?
Answer: The inhibition in vivo at 30 mg/kg was 87.1%.

Question: How did the inhibition in vivo at 30 mg/kg turn out when `Cc1ncc(-c2ccc3c(c2)N(c2cnc(C)c(N4CCOCC4)n2)C(=O)C3(C)C)cn1` [Example 18, 3,3-Dimethyl-1-(5-methyl-6-morpholinopyrazin-2-yl)-6-(2-methylpyrimidin-5-yl)indolin-2-one] was run?
Answer: The inhibition in vivo at 30 mg/kg was 88.8%.

Question: `Cc1ncc(-c2ccc3c(c2)N(c2cncc(N4CCOCC4)n2)C(=O)C3(C)C)cn1` [Example 1, 3,3-Dimethyl-6-(2-methylpyrimidin-5-yl)-1-(6-morpholinopyrazin-2-yl)indolin-2-one] was tested. Which inhibition in vivo at 30 mg/kg did it give?
Answer: The inhibition in vivo at 30 mg/kg was 90%.

Question: With `Cc1ncc(-c2ccc3c(c2)N(c2cnc4c(c2)C(C)(C)C(=O)N4C)C(=O)C3(C)C)cn1` [Example 54, 5-(3,3-Dimethyl-6-(2-methylpyrimidin-5-yl)-2-oxoindolin-1-yl)-1,3,3-trimethyl-1H-pyrrolo[2,3-b]pyridin-2(3H)-one] as the molecule, how does the inhibition in vivo at 30 mg/kg read?
Answer: Its inhibition in vivo at 30 mg/kg is 93.5%.

Question: With `Cc1ncc(-c2ccc3c(c2)N(c2cncc(N4CCCC4=O)n2)C(=O)C3(C)C)cn1` [Example 3, 3,3-Dimethyl-6-(2-methylpyrimidin-5-yl)-1-(6-(2-oxopyrrolidin-1-yl)pyrazin-2-yl)indolin-2-one] as the molecule, how does the inhibition in vivo at 30 mg/kg read?
Answer: Its inhibition in vivo at 30 mg/kg is 87.8%.
